Calls of active or inactive are those of the source. The calls are words filed in the database; no cut-off is given here.
Columns and labels:
Rattus norvegicus [1] = test: Narcotic analgesic activity in fasted Sprague-Dawley rat at 240 mg/kg, po measured at 15 mins by D'Amour-Smith tail-flick test relative to control; format: functional
Mus musculus [2] = test: Analgesic activity in Swiss-Webster mouse assessed as reduction of acetylcholine-induced writhing at 25 mg/kg, sc relative to control; format: functional; parameters: scale not given: the % may be the effect or the level left; details: route subcutaneous
Rattus norvegicus [3] = test: Toxicity in Sprague-Dawley rat assessed as convulsion at 240 mg/kg, po; format: organism-based; parameters: dose 240 mg/kg, route oral; details: in vivo
Rattus norvegicus [4] = test: Hypoglycemic activity in fasted Sprague-Dawley rat assessed as reduction of blood glucose level at 89 mg/kg, po relative to control; format: functional; parameters: scale not given: the % may be the effect or the level left
Mus musculus [5] = test: Analgesic activity in sc dosed Swiss-Webster mouse assessed as reduction of acetylcholine-induced writhing; format: functional; details: Mus musculus, Swiss-Webster, sc; read-out: ED50
Mus musculus [6] = test: Toxicity in Swiss-Webster mouse assessed as stimulation of straub tail at 2.5 mg/kg, sc after 15 to 25 mins; format: organism-based; parameters: dose 2.5 mg/kg, route subcutaneous; details: in vivo
Rattus norvegicus [7] = test: Narcotic analgesic activity in fasted Sprague-Dawley rat at 120 mg/kg, po measured at 15 mins by D'Amour-Smith tail-flick test relative to control; format: functional
Rattus norvegicus [8] = test: Hypoglycemic activity in glucose loaded Sprague-Dawley rat assessed as reduction of blood glucose level at 88 mg/kg, po relative to control; format: functional; parameters: scale not given: the % may be the effect or the level left
Rattus norvegicus [9] = test: Toxicity in fasted Sprague-Dawley rat assessed as mortality at 240 mg/kg, po measured at 60 mins; format: organism-based; parameters: dose 240 mg/kg, route oral; details: in vivo, 1 h
Rattus norvegicus [10] = test: Narcotic antagonist activity in fed Sprague-Dawley rat assessed as decrease in phenazocine-induced analgesic activity at 80 mg/kg, sc; format: functional; parameters: scale not given: the % may be the effect or the level left; details: route subcutaneous
Rattus norvegicus [11] = test: Narcotic analgesic activity in fed Sprague-Dawley rat at 240 mg/kg, sc measured at 30 mins by D'Amour-Smith tail-flick test; format: functional; details: route subcutaneous
Rattus norvegicus [12] = test: Narcotic analgesic activity in fasted Sprague-Dawley rat at 120 mg/kg, po measured at 60 mins by D'Amour-Smith tail-flick test relative to control; format: functional
Rattus norvegicus [13] = test: Hypoglycemic activity in Sprague-Dawley rat assessed as reduction of blood glucose level at 88 mg/kg, po by glucagon-impaired glucose disposal test in presence of microsomal enzyme inhibitor SKF 525-A; format: functional, organism-based; parameters: dose 88 mg/kg
Rattus norvegicus [14] = test: Hypoglycemic activity in Sprague-Dawley rat assessed as reduction of blood glucose level at 100 mg/kg, po; format: functional, organism-based; parameters: dose 100 mg/kg
Rattus norvegicus [15] = test: Narcotic analgesic activity in fasted Sprague-Dawley rat at 120 mg/kg,sc measured at 30 mins by D'Amour-Smith tail-flick test in presence of opioid antagonist nalorphine; format: functional, organism-based; parameters: dose 120 mg/kg
Rattus norvegicus [16] = test: Hypoglycemic activity in Sprague-Dawley rat assessed as reduction of blood glucose level at 88 mg/kg, po by glucagon-impaired glucose disposal test in presence of opioid antagonist nalorphine; format: functional, organism-based; parameters: dose 88 mg/kg
Rattus norvegicus [17] = species: Rattus norvegicus; test: Narcotic analgesic activity in Sprague-Dawley rat at 15 mins by D'Amour-Smith tail-flick test in presence of microsomal enzyme inhibitor SKF 525-A; format: functional, organism-based
Rattus norvegicus [18] = test: Toxicity in Sprague-Dawley rat assessed as rigidity at 240 mg/kg, sc; format: organism-based; parameters: dose 240 mg/kg, route subcutaneous; details: in vivo
Rattus norvegicus [19] = test: Toxicity in Sprague-Dawley rat assessed as tremor at 240 mg/kg, sc; format: organism-based; parameters: dose 240 mg/kg, route subcutaneous; details: in vivo
Rattus norvegicus [20] = test: Hypoglycemic activity in Sprague-Dawley rat assessed as reduction of blood glucose level at 88 mg/kg, po by glucagon-impaired glucose disposal test relative to control; format: functional; parameters: scale not given: the % may be the effect or the level left
Rattus norvegicus [21] = test: Narcotic analgesic activity in po dosed fasted Sprague-Dawley rat measured at 60 mins by D'Amour-Smith tail-flick test; format: functional; details: Rattus norvegicus, Sprague-Dawley, Tail, po, 1 h; read-out: ED50
Rattus norvegicus [22] = test: Hypoglycemic activity in Sprague-Dawley rat assessed as reduction of blood glucose level at 87 mg/kg, po by glucagon-impaired glucose disposal test in presence of microsomal enzyme inhibitor SKF 525-A; format: functional, organism-based; parameters: dose 87 mg/kg
[23] = Drug level in glucose loaded Sprague-Dawley rat urine treated with (RS-exo,exo)-8-methyl-2-(2-thienyl)-8-azabicyclo[3.2.1]octane-3-carboxylate at 20 mg, po administered 3 to 6 hrs measured for 24 hrs by TLC/mass spectrographic analysis; format: ADME, organism-based; details: in vivo
Mus musculus [24] = test: Toxicity in Swiss-Webster mouse assessed as stimulation of straub tail at 150 mg/kg, po after 15 to 25 mins; format: organism-based; parameters: dose 150 mg/kg, route oral; details: in vivo
[25] = Drug level in glucose loaded Sprague-Dawley rat urine treated with methyl (exo,exo)-8-(l-pentyl)-2-(2-thienyl)-8-azabicyclo[3.2.1]octane-3-carboxylate at 20 mg, po administered 3 to 6 hrs measured for 24 hrs by TLC/mass spectrographic analysis; format: ADME, organism-based; details: in vivo
Rattus norvegicus [26] = test: Hypoglycemic activity in Sprague-Dawley rat assessed as reduction of blood glucose level at 87 mg/kg, po by glucagon-impaired glucose disposal test relative to control; format: functional; parameters: scale not given: the % may be the effect or the level left
Rattus norvegicus [27] = test: Narcotic analgesic activity in fed Sprague-Dawley rat at 120 mg/kg, sc measured at 30 mins by D'Amour-Smith tail-flick test; format: functional; details: route subcutaneous
Rattus norvegicus [28] = test: Toxicity in Sprague-Dawley rat assessed as tremor at 120 mg/kg, sc; format: organism-based; parameters: dose 120 mg/kg, route subcutaneous; details: in vivo
Mus musculus [29] = test: Toxicity in Swiss-Webster mouse assessed as sedation at 40 mg/kg, sc; format: organism-based; parameters: dose 40 mg/kg, route subcutaneous; details: in vivo
Rattus norvegicus [30] = test: Hypoglycemic activity in Sprague-Dawley rat assessed as reduction of blood glucose level at 100 mg/kg, po by glucagon-impaired glucose disposal test relative to control; format: functional; parameters: scale not given: the % may be the effect or the level left
Rattus norvegicus [31] = test: Narcotic analgesic activity in fasted Sprague-Dawley rat at 240 mg/kg, po measured at 60 mins by D'Amour-Smith tail-flick test relative to control; format: functional
Mus musculus [32] = test: Analgesic activity in Swiss-Webster mouse assessed as reduction of acetylcholine-induced writhing at 75 mg/kg, sc relative to control; format: functional; parameters: scale not given: the % may be the effect or the level left; details: route subcutaneous
Rattus norvegicus [33] = test: Toxicity in rat assessed as slight rigidity at 480 mg/kg, po; format: organism-based; parameters: dose 480 mg/kg, route oral; details: in vivo
Rattus norvegicus [34] = test: Toxicity in Sprague-Dawley rat assessed as stiff tail at 480 mg/kg, po; format: organism-based; parameters: dose 480 mg/kg, route oral; details: in vivo
Rattus norvegicus [35] = test: Toxicity in Sprague-Dawley rat assessed as jumpy behavior at 480 mg/kg, po; format: organism-based; parameters: dose 480 mg/kg, route oral; details: in vivo
Rattus norvegicus [36] = test: Hypoglycemic activity in glucose loaded Sprague-Dawley rat assessed as reduction of blood glucose level at 89 mg/kg, po relative to control; format: functional; parameters: scale not given: the % may be the effect or the level left
Rattus norvegicus [37] = test: Toxicity in Sprague-Dawley rat assessed as rigidity at 240 mg/kg, po; format: organism-based; parameters: dose 240 mg/kg, route oral; details: in vivo
Rattus norvegicus [38] = test: Toxicity in Sprague-Dawley rat assessed as hyperexcitability at 240 mg/kg, po; format: organism-based; parameters: dose 240 mg/kg, route oral; details: in vivo
Rattus norvegicus [39] = test: Hypoglycemic activity in glucose loaded Sprague-Dawley rat assessed as reduction of blood glucose level at 89 mg/kg, po in presence of microsomal enzyme inhibitor SKF 525-A; format: functional, organism-based; parameters: dose 89 mg/kg
Rattus norvegicus [40] = test: Analgesic activity in rat assessed as protection against intraarterial bradykinin-induced pain response at 100 mg/kg, sc; format: functional, organism-based; parameters: dose 100 mg/kg

COC(=O)[C@H]1C[C@H]2CC[C@H]([C@H]1c1cccs1)N2C(C)C.Cl
Activity (Rattus norvegicus [1]): 87% | Activity (Mus musculus [2]): 13% | Activity (Rattus norvegicus [3]): Toxic | Activity (Rattus norvegicus [4]): 40%

CCOC(=O)[C@H]1C[C@H]2CC[C@@H](N2)[C@H]1c1cccs1.Cl
ED50 (Mus musculus [5]): 2.8 mg/kg | Activity (Mus musculus [6]): Toxic | Activity (Rattus norvegicus [7]): 85% | Activity (Rattus norvegicus [8]): 66%

COC(=O)[C@H]1C[C@H]2CC[C@H]([C@H]1c1ccccc1)N2C (stereo in doubt; (-)-5)
ED50 (Mus musculus [5]): 18 mg/kg | Activity (Rattus norvegicus [3]): Toxic | Activity (Rattus norvegicus [9]): Toxic | Activity (Rattus norvegicus [10]): 73%

COC(=O)[C@@H]1C[C@@H]2CC[C@@H]([C@@H]1c1cccs1)N2C.Cl
Activity (Rattus norvegicus [11]): 62% | Activity (Rattus norvegicus [12]): 26% | Activity (Rattus norvegicus [13]): inactive | Activity (Rattus norvegicus [14]): inactive | Activity (Rattus norvegicus [15]): inactive | Activity (Rattus norvegicus [16]): Active | Activity (Rattus norvegicus [17]): inactive | Activity (Rattus norvegicus [18]): Toxic | Activity (Rattus norvegicus [19]): Toxic | Activity (Rattus norvegicus [20]): <20%

COC(=O)[C@H]1C[C@H]2CC[C@@H](N2)[C@H]1c1cccs1.Cl
ED50 (Rattus norvegicus [21]): 43 mg/kg | ED50 (Mus musculus [5]): 3.3 mg/kg | Activity (Rattus norvegicus [22]): Active | Drug metabolism [23]: metabolite_detected | Activity (Mus musculus [24]): Toxic | Drug metabolism [25]: metabolite_detected | Activity (Rattus norvegicus [26]): 43%

COC(=O)[C@H]1C[C@H]2CC[C@H]([C@H]1c1ccccc1)N2C.Cl (racemic)
Activity (Rattus norvegicus [27]): <20% | ED50 (Mus musculus [5]): 12 mg/kg | Activity (Rattus norvegicus [28]): Toxic | Activity (Mus musculus [29]): Toxic | Activity (Rattus norvegicus [20]): 24%

CCCCCCCN1[C@@H]2CC[C@@H]1[C@@H](c1cccs1)[C@@H](C(=O)OC)C2
Activity (Rattus norvegicus [30]): 40% | Activity (Rattus norvegicus [31]): 70% | Activity (Mus musculus [32]): 27% | Activity (Rattus norvegicus [33]): Toxic | Activity (Rattus norvegicus [34]): Toxic | Activity (Rattus norvegicus [35]): Toxic

COC(=O)[C@H]1C[C@H]2CC[C@H]([C@H]1c1cccs1)N2CCO.Cl
Activity (Rattus norvegicus [36]): 72% | Activity (Rattus norvegicus [1]): 100% | Activity (Mus musculus [32]): 73% | Activity (Rattus norvegicus [3]): Toxic | Activity (Rattus norvegicus [37]): Toxic | Activity (Rattus norvegicus [38]): Toxic | Activity (Rattus norvegicus [39]): Active

COC(=O)[C@H]1C[C@H]2CC[C@H]([C@H]1c1cccc(O)c1)N2C.Cl
Activity (Rattus norvegicus [27]): <20% | ED50 (Mus musculus [5]): 24 mg/kg | Activity (Rattus norvegicus [40]): inactive | Activity (Rattus norvegicus [20]): <20%

— ChEMBL document CHEMBL3272053, “(exo, exo)-2-Aryltropane-3-carboxylic esters, hypoglycemic agents with accompanying analgesic activity” (J Med Chem, 1978)
